Assay results taken from patent US8785655B2, “Ionic liquid solvents” (Dublin City University, priority 2009, dated 2014).

Assays:
[1] = test system: Candida parapsilosis ATCC 22019; assay: In vitro antifungal activity, MIC by microdilution (NCCLS M27-A); settings: CP
[2] = test system: Staphylococcus aureus CCM 4516/08; assay: Screen against bacteria, MIC/IC80; format: cell-based; settings: SA
[3] = test system: Trichophyton mentagrophytes 445; assay: In vitro antifungal activity, MIC by microdilution (NCCLS M27-A); settings: TM
Experimental: (§1) In vitro antifungal activities of the compounds were evaluated on the collection of fungal strains deposited at the Department of Biological and Medical Sciences, Faculty of Pharmacy, Charles University, Czech Republic. All the isolates were maintained on Sabouraud dextrose agar prior to being tested.
(§2) Minimum inhibitory concentrations (MICs) were determined by the microdilution format of the NCCLS M27-A guidelines. […] RPMI 1640 (Sevapharma, Prague) medium supplemented with L-glutamine and buffered with 0.165 M morpholinepropanesulfonic acid to pH 7.0 was used as the test medium. The wells of the microdilution tray contained 100 μl of the RPMI 1640 medium with 2-fold serial dilutions of the compounds (1000 to 0.24 μmol/l for the new compounds) and 100 μl of inoculum suspension. Fungal inoculum in RPMI 1640 was prepared to give a final concentration of 5×103±0.2 cfu·ml-1. The trays were incubated at 35° C. and MICs were read visually for filamentous fungi and photometrically for yeasts as an optical density (OD) at 540 nm after 24 h and 48 h. The MICs were defined as 80% inhibition of the growth of control. MICs were determined twice and in duplicate. The deviations from the usually obtained were no higher than the nearest concentration value up and down the dilution scale.

Absidia corymbifera 272 = assay: as above; settings: AC
Experimental: as §1, §2

[4] = test system: Enterococcus sp. J 14365/08; assay: Screen against bacteria, MIC/IC80; format: cell-based; settings: EF
Escherichia coli CCM4517 = assay: Screen against bacteria, MIC/IC80; format: cell-based; settings: EC
[5] = test system: Candida lusitaniae 2446/l; assay: In vitro antifungal activity, MIC by microdilution (NCCLS M27-A); settings: CL
[6] = test system: Klebsiella pneumoniae D 11750/08; assay: Screen against bacteria, MIC/IC80; format: cell-based; settings: KP
Candida krusei E28 = assay: In vitro antifungal activity, MIC by microdilution (NCCLS M27-A)
[7] = test system: Staphylococcus epidermidis H 6966/08; assay: Screen against bacteria, MIC/IC80; format: cell-based; settings: SE
[8] = test system: Candida albicans ATCC 90028; assay: In vitro antifungal activity, MIC by microdilution (NCCLS M27-A)
Experimental: as §1, §2

Candida krusei ATCC 6258 = assay: as above
[9] = test system: Klebsiella pneumoniae J 14368/08 ESBL-positive; assay: Screen against bacteria, MIC/IC80; format: cell-based; settings: KP-E
[10] = test system: Aspergillus fumigatus 231; assay: In vitro antifungal activity, MIC by microdilution (NCCLS M27-A); settings: AF
[11] = test system: Candida albicans ATCC 44859; assay: as above
[12] = test system: Pseudomonas aeruginosa CCM 1961; assay: Screen against bacteria, MIC/IC80; format: cell-based; settings: PA
[13] = test system: Staphylococcus aureus H 5996/08 Methiciline-resistant; assay: Screen against bacteria, MIC/IC80; format: cell-based; settings: MRSA
Candida glabrata 20/l = assay: In vitro antifungal activity, MIC by microdilution (NCCLS M27-A); settings: CG
Experimental: as §1, §2

Candida tropicalis 156 = assay: as above; settings: CT
Experimental: as §1, §2

Measured: MIC/IC80

CCCCCCCCOS(=O)(=O)[O-].CCOCCOC(=O)[C@@H](OC(=O)Cn1cc[n+](C)c1)c1ccccc1 [KG305, S-3-methyl-1-[1-(ethoxyethoxycarbonyl)-1-phenylmethoxycarbonylmethyl]imidazolium octyl sulphate]
>1 mM: [1]; 24 h | [1]; 48 h | [2]; 24 h | [2]; 48 h | [3]; 72 h | [3]; 120 h | Absidia corymbifera 272; 24 h | Absidia corymbifera 272; 48 h | [4]; 24 h | [4]; 48 h | Escherichia coli CCM4517; 24 h | Escherichia coli CCM4517; 48 h | [5]; 24 h | [5]; 48 h | [6]; 24 h | [6]; 48 h | Candida krusei E28; CK2, 24 h | Candida krusei E28; CK2, 48 h | [7]; 24 h | [7]; 48 h | [8]; CA2, 24 h | [8]; CA2, 48 h | Candida krusei ATCC 6258; CK1, 24 h | Candida krusei ATCC 6258; CK1, 48 h | [9]; 24 h | [9]; 48 h | [10]; 24 h | [10]; 48 h | [11]; CA1, 24 h | [11]; CA1, 48 h | [12]; 24 h | [12]; 48 h | [13]; 24 h | [13]; 48 h | Candida glabrata 20/l; 24 h | Candida glabrata 20/l; 48 h | Candida tropicalis 156; 24 h | Candida tropicalis 156; 48 h

CCCCCOC(=O)[C@@H](C)OC(=O)C[n+]1ccn(C)c1 [KG159, R-3-methyl-1-[1-(pentoxycarbonyl)-1-methylmethoxycarbonylmethyl]imidazolium bromide]
>1 mM: [1]; 24 h | [1]; 48 h | [2]; 24 h | [2]; 48 h | [3]; 72 h | [3]; 120 h | Absidia corymbifera 272; 24 h | Absidia corymbifera 272; 48 h | [4]; 24 h | [4]; 48 h | Escherichia coli CCM4517; 24 h | Escherichia coli CCM4517; 48 h | [5]; 24 h | [5]; 48 h | [6]; 24 h | [6]; 48 h | Candida krusei E28; CK2, 24 h | Candida krusei E28; CK2, 48 h | [7]; 24 h | [7]; 48 h | [8]; CA2, 24 h | [8]; CA2, 48 h | Candida krusei ATCC 6258; CK1, 24 h | Candida krusei ATCC 6258; CK1, 48 h | [9]; 24 h | [9]; 48 h | [10]; 24 h | [10]; 48 h | [11]; CA1, 24 h | [11]; CA1, 48 h | [12]; 24 h | [12]; 48 h | [13]; 24 h | [13]; 48 h | Candida glabrata 20/l; 24 h | Candida glabrata 20/l; 48 h | Candida tropicalis 156; 24 h | Candida tropicalis 156; 48 h

CCOCCOC(=O)[C@@H](C)OC(=O)C[n+]1ccn(C)c1 [KG161, R-3-methyl-1-[1-(ethoxyethoxycarbonyl)-1-methylmethoxycarbonylmethyl]imidazolium bromide]
>1 mM: [1]; 24 h | [1]; 48 h | [2]; 24 h | [2]; 48 h | [3]; 72 h | [3]; 120 h | Absidia corymbifera 272; 24 h | Absidia corymbifera 272; 48 h | [4]; 24 h | [4]; 48 h | Escherichia coli CCM4517; 24 h | Escherichia coli CCM4517; 48 h | [5]; 24 h | [5]; 48 h | [6]; 24 h | [6]; 48 h | Candida krusei E28; CK2, 24 h | Candida krusei E28; CK2, 48 h | [7]; 24 h | [7]; 48 h | [8]; CA2, 24 h | [8]; CA2, 48 h | Candida krusei ATCC 6258; CK1, 24 h | Candida krusei ATCC 6258; CK1, 48 h | [9]; 24 h | [9]; 48 h | [10]; 24 h | [10]; 48 h | [11]; CA1, 24 h | [11]; CA1, 48 h | [12]; 24 h | [12]; 48 h | [13]; 24 h | [13]; 48 h | Candida glabrata 20/l; 24 h | Candida glabrata 20/l; 48 h | Candida tropicalis 156; 24 h | Candida tropicalis 156; 48 h
